± gives the expanded uncertainty stated by the source.
Settings: 101.33 kPa, Liquid, Vibrating tube method

Compound | mass density (293.15 K) [kg/m3] | mass density (303.15 K) [kg/m3] | mass density (313.15 K) [kg/m3] | mass density (323.15 K) [kg/m3] | mass density (333.15 K) [kg/m3] | mass density (343.15 K) [kg/m3]
Cc1cc(C)cc(C)c1 [1,3,5-trimethylbenzene] | 865.1 ± 6 | 856.9 ± 6 | 842.8 ± 6 | 834.7 ± 6 | 826.6 ± 6 | 818.5 ± 6
CC(=O)N1CCOCC1 [4-acetylmorpholine] | 1113.8 ± 6.1 | 1105.9 ± 6.1 | 1097.3 ± 6.1 | 1088.7 ± 6.1 | 1080.1 ± 6.1 | 1071.5 ± 6.1
c1ccccc1 [benzene] | 878.9 ± 6 | 868.2 ± 6 | 857.4 ± 6 | 846.5 ± 6 | 835.7 ± 6 | 824.7 ± 6
CCc1ccccc1 [ethylbenzene] | 867.2 ± 6 | 858.3 ± 6 | 849.3 ± 6 | 840.3 ± 6 | 831.2 ± 6 | 822.1 ± 6
Cc1ccccc1 [toluene] | 866.8 ± 6 | 857.5 ± 6 | 848.8 ± 6 | 838.9 ± 6 | 829.6 ± 6 | 820.2 ± 6

From the NIST ThermoML archive (doi:10.1016/j.jct.2008.07.009)
